Assay results from patent US20250222066A1, “COMPOSITIONS AND METHODS OF TREATING, PREVENTING OR INHIBITING A FACULTATIVE ANAEROBE INFECTION” (UNIVERSITY OF UTAH RESEARCH FOUNDATION, priority 2022, published 2025).
“Also recorded” adds a separate entry of the source. Where two headings read alike, the source gives them in different places.

Key:
[1] = tested on: P. aeruginosa ATCC 27853 biofilms; assay: CDC biofilm reactor coupons, 24 h antibiotic treatment, bioburden by serial dilution plating; assay type: cell-based; settings: for anti-biofilm efficacy of hypoxia-activated prodrug compared with antibiotic controls: 1 mM compound with cefepime or 0.1 mM gentamicin, 24 h
Method: Twelve hypoxia activated prodrugs from three categories were tested: nitroimidazoles (same class as metronidazole), nitrofurans, and anti-tumor agents. For the screening, S. aureus ATCC 6538 was used with the best performing compounds subsequently tested against P. aeruginosa ATCC 27853; these pathogens can then be used as inocula for infection development in the animal work.
(§1) To test each compound, the contents of an entire CDC-biofilm reactor (24 coupons/biofilm samples) were used (see FIG. 2 and FIG. 3). These experiments were designed to have multiple internal controls to enable cross-data comparisons (see FIG. 4). Using the methods described above, 4 reactor samples/coupons served as reactor controls. The remaining 20 samples/coupons were split into 4 treatment groups of 5 samples each (n=5).
Two of the treatment groups were the same for each test: one in 1 mM nafcillin (a β-lactam antibiotic) and a second in 1 mM gentamicin. Likewise, the second two treatment groups had either 1 mM nafcillin or 1 mM gentamicin both with the addition of 1 mM of the compound tested. For comparison for most compounds 1 mM ranges from ˜0.15-0.5 mg/ml, 1 or 2 Log 2 dilutions below tests in FIG. 1. For testing of P. aeruginosa biofilms (FIG. 3), the β-lactam cefepime was substituted for nafcillin due to resistance and the gentamicin concentration was reduced from 1 to 0.1 mM because of excessive kill compared with S. aureus biofilms. The other compounds were tested at the same concentrations.
Quantification of the post-treatment residual bioburden was performed by dispersing biofilm bacteria into the 2 ml treatments with its constituent bacteria by vortexing, and sonicating. The antibiotic was removed from a representative aliquot (1 ml) sample, alternating steps of centrifugally pelleting the bacteria, removing 90% of the solution, replacing 90% of the solution and repeating 2 additional times thereby decreasing the antibiotic in solution below the MIC values. The pelleted bacteria were resuspended and measured by the serial dilution plating technique. Thus, the values presented in FIGS. 2, 3 and 4 represent the cumulative change in bioburden from the surface-attached biofilms and bacteria in the treatments.

[2] = tested on: S. aureus ATCC 6538 biofilms; assay: as above; assay type: cell-based; settings: for anti-biofilm efficacy of hypoxia-activated prodrug compared with antibiotic controls: 1 mM compound with 1 mM nafcillin or 1 mM gentamicin, 24 h; for synergy of the companion antibiotic with metronidazole against biofilms: 24 h treatment; for eradication of biofilms: concentrations over 60,000 X the MIC, 6,000 X the nephrotoxic and ototoxic thresholds, 25-50 X the cytotoxic limit
Method: For determining the broad-spectrum utility of metronidazole, respective bacterial species were grown into stationary biofilms using a 2- or 3-day species-specific growth protocol in a CDC biofilm reactor on standard 0.5 in polycarbonate coupons. Each reactor holds up to 24 coupons/samples with adherent biofilms. Bacterial bioburden, represented as colony forming units (CFUs), from five reactor samples/coupons (n=5) were quantified by first dispersing the bacterial biofilms in 2 ml of PBS by standardized vortex-sonication technique and serial-dilution plating. Importantly, this quantification technique provides bioburden data with logarithmic sensitivity. […] The gray shaded regions represent standard deviations.
(§2) Three groups of 5 coupons/samples (n=5) were placed into 2 ml treatments either containing 0.5-1 mg/ml of gentamicin, metronidazole, or combinations thereof (in CAMHB) and incubated for 24 h at 37° C. Importantly, the total antibiotic concentration (mg/ml) was fixed for each sample to enable assessment of compound synergy.
After the 24 h treatment, the bacteria adhered to coupons were quantified by rinsing the samples very gently in excess PBS followed by vortexing and sonicating to disperse the biofilm in 2 ml PBS and subsequent serial-dilution plating. The bioburden of the adhered bacteria is represented by the blue bars in FIG. 1. […] Broth bioburden is represented by the red bars in FIG. 1.
Twelve hypoxia activated prodrugs from three categories were tested: nitroimidazoles (same class as metronidazole), nitrofurans, and anti-tumor agents.
as §1, with “These experiments were designed to have multiple internal controls to enable cross-data comparisons (see FIG. 4).” left out
For testing against S. aureus biofilms, the compounds were prepared at a concentration of 1 mM in CAMHB; coupons were treated in 2 ml for 24 h. Compounds were intentionally prepared in units of molarity rather than the more common weight/volume ratios of clinicians.
This choice was made for two reasons.
Two of the treatment groups were the same for each test: one in 1 mM nafcillin (a β-lactam antibiotic) and a second in 1 mM gentamicin. […] For comparison for most compounds 1 mM ranges from ˜0.15-0.5 mg/ml, 1 or 2 Log 2 dilutions below tests in FIG. 1. […] The other compounds were tested at the same concentrations.
Quantification of the post-treatment residual bioburden was performed by dispersing biofilm bacteria into the 2 ml treatments with its constituent bacteria by vortexing, and sonicating. […] The pelleted bacteria were resuspended and measured by the serial dilution plating technique. Thus, the values presented in FIGS. 2, 3 and 4 represent the cumulative change in bioburden from the surface-attached biofilms and bacteria in the treatments.

[3] = tested on: S. epidermidis; assay: Minimum inhibitory concentration (MIC) assay, planktonic bacteria; assay type: cell-based, Staphylococcus epidermidis; settings: for MIC: Staphylococcus epidermidis, for 1:1 combinations MIC is the sum of both compounds
Method: as §2
(§3) For comparison to these biofilm tests with adjunctive metronidazole, the MIC was determined for each organism and each compound tested.

[4] = tested on: S. aureus biofilms; assay: Radical-scavenger edaravone protection of biofilms from metronidazole (FIG. 6); assay type: cell-based; settings: 0-2 mg/ml edaravone with 0.25 mg/ml nafcillin and 4 mg/ml metronidazole, 24 h
Method: . S. aureus biofilms grown using a CDC biofilm reactor and treated with 2 ml solutions of CAMHB in 0.25 mg/ml nafcillin (serving as a bacteriostatic agent) and 4 mg/ml metronidazole (with herein established activity against biofilms) and the indicated concentration of the potent radical-scavenger edaravone (0-2 mg/ml). After treatment, the biofilm coupons were removed from the treatment broth, rinsed and the bioburden quantified using a method of vortexing, sonicating, and serial dilution plating.
In one experiment, S. aureus biofilms were subjected to a bacteriostatic solution of nafcillin (0.25 mg/ml) and an aggressive dose of metronidazole (4 mg/ml). The coupons were divided evenly into 5 groups (n=8) which were treated with serial concentrations of the potent radical scavenger edaravone ranging from 0-2 mg/ml. […]. In a second experiment, biofilms were treated with a small sublethal dose of the nitroimidazole pimonidazole (0.06 mg/ml). Like the other nitroimidazoles, pimonidazole is reductively activated in hypoxic cells by a nitro-reductase enzyme. In hypoxia, the reduced compound indiscriminately forms adducts with cellular components including adducts with thiol groups which can be recognized with a primary antibody by immunohistochemical staining (FIG. 5A and FIG. 9A) (Masaki, Y. et al. PLOS One 11, e0161639 (2016)). […]

[5] = tested on: biofilm-contaminated fixation plates; assay: Sheep model of biofilm-related orthopedic (musculoskeletal) infection; assay type: in vivo
Method: Use of the Pouch device in a sheep model of biofilm-related orthopedic infection. The Pouch device and two clinical standards of care (IV-vancomycin, and gentamicin-loaded Stimulan® beads) were tested in a sheep model of biofilm-related orthoepic infection. Briefly, the proximal medial aspect of the right tibia is subjected to a blast from an air cannon to simulate traumatic soft tissue damage. In a surgical procedure, the periosteum is stripped, and two biofilm-contaminated fixation plates are situated above osteotomized fractures. At necropsy, one of the fixation plates and the surrounding tissue serve for microbiological analysis whereas the plate and tissues of the second site are used for histological analysis. Four groups of sheep (n=5/group) were used in testing. The first group served as a positive control of infection. The Pouch device was tested in one group. The Pouch device was placed during the surgery and refilled daily for 10 days with 480 mg of gentamicin sulfate, 1 g of vancomycin, and 36 mg of rifampin. Ten days after surgery the Pouch device was removed, and the sheep monitored for an additional 11 days; endpoint was 21 days for the groups. For comparison, clinical standards of care were tested in the remaining two groups: IV vancomycin, and Gentamicin-loaded Stimulan® beads. […]

[6] = tested on: K. pneumoniae; assay: Minimum inhibitory concentration (MIC) assay, planktonic bacteria; assay type: cell-based, Klebsiella pneumoniae; settings: for 1:1 combinations MIC is the sum of both compounds
Method: as §3

[7] = tested on: MRSA USA300; assay: as above; assay type: cell-based; settings: for 1:1 combinations MIC is the sum of both compounds
Method: as §3

[8] = tested on: A. baumannii; assay: as above; assay type: cell-based; settings: for 1:1 combinations MIC is the sum of both compounds
Method: as §3

[9] = tested on: P. aeruginosa; assay: as above; assay type: cell-based; settings: for 1:1 combinations MIC is the sum of both compounds
Method: as §3

[10] = tested on: S. aureus; assay: as above; assay type: cell-based
Excerpt: Shortcomings of clinical antibiotic susceptibility assays. The antibiotic-susceptibility assays used to guide clinical treatment and prophylaxis rely on actively-dividing planktonic bacteria (Williams, D. L. & Costerton, J. W. J Biomed Mat Res B 100, 1163-1169 (2011)). Among the assays performed by clinical reference laboratories are the minimum inhibitory concentration (MIC), and disk diffusion (Kirby-Bauer) assays. The ubiquity of these assays is owed to the fact that they are high throughput, relatively quick to perform, repeatable, and have short turnaround times. They inform clinicians regarding which antibiotic are applicable for a given infection from a simple site swab, blood, or aspirate sample. […] Thus, when a compound, such as metronidazole performs poorly in an MIC assay, a physician would be thoroughly dissuaded from using it. Likewise, in drug-development, a high MIC value would exclude potentially useful anti-biofilm agents from candidate drug libraries. […] Using orthodox clinical methodology, there would be no basis to administer metronidazole in the treatment of a S. aureus-related infections, despite its exceptional efficacy against bacterial biofilms of the same isolates. The MIC assay fails to provide any information about susceptibility profiles of bacteria that reside in the biofilm phenotype.
as §3

[11] = tested on: E. coli; assay: as above; assay type: cell-based, Escherichia coli; settings: for 1:1 combinations MIC is the sum of both compounds
Method: as §3

Cn1c(COP(=O)(NCCBr)NCCBr)cnc1[N+](=O)[O-] [Evofosfamide]
anti-biofilm efficacy of hypoxia-activated prodrug compared with antibiotic controls [1]: significant activity
anti-biofilm efficacy of hypoxia-activated prodrug compared with antibiotic controls [2]: significant activity

C[C@H]1COc2c(N3CCN(C)CC3)c(F)cc3c(=O)c(C(=O)O)cn1c23 [Levofloxacin, levofloxacin]
MIC ([3]; aerobic, read-out: Aerobic MIC): 0.125 µg/mL
MIC ([3]; anaerobic, read-out: Anaerobic MIC): 0.125 µg/mL

Nc1n[n+]([O-])c2ccccc2[n+]1[O-] [Tirapazamine]
anti-biofilm efficacy of hypoxia-activated prodrug compared with antibiotic controls [1]: significant activity
anti-biofilm efficacy of hypoxia-activated prodrug compared with antibiotic controls [2]: significant activity

CO/N=C(\C(=O)N[C@@H]1C(=O)N2C(C(=O)[O-])=C(C[N+]3(C)CCCC3)CS[C@H]12)c1csc(N)n1 [cefepime]
synergy of the companion antibiotic with hypoxia-activated prodrugs ([1]; Gram-negative organisms): least synergistic

CC1=NN(c2ccccc2)C(=O)C1 [edaravone]
effect on the killing of biofilms by metronidazole [4]: neutralized the killing-effect of metronidazole in a dose dependent manner; also recorded: proportionally negates the killing power of metronidazole; also recorded: proportionally negate killing effects of metronidazole

O=C1OC(CN2CCOCC2)CN1/N=C/c1ccc([N+](=O)[O-])o1 (stereo not shown) [furaltadone]
anti-biofilm efficacy of hypoxia-activated prodrug compared with antibiotic controls [1]: remarkable efficacy
anti-biofilm efficacy of hypoxia-activated prodrug compared with antibiotic controls [2]: remarkable efficacy
anti-biofilm efficacy with β-lactam antibiotics ([2]; paired with β-lactam (nafcillin; cefepime for P. aeruginosa)): considerable efficacy

CCOc1ccc2ccccc2c1C(=O)N[C@@H]1C(=O)N2[C@@H]1SC(C)(C)[C@@H]2C(=O)O [nafcillin]
synergy of the companion antibiotic with metronidazole against biofilms [2]: did not display synergy nor antagonism; also recorded: least synergistic

NC(=O)N/N=C/c1ccc([N+](=O)[O-])o1 [nitrofurazone]
anti-biofilm efficacy of hypoxia-activated prodrug compared with antibiotic controls [2]: showed benchtop anti-biofilm utility

CN[C@H](CC(C)C)C(=O)N[C@H]1C(=O)N[C@@H](CC(N)=O)C(=O)N[C@H]2C(=O)N[C@H]3C(=O)N[C@H](C(=O)N[C@H](C(=O)O)c4cc(O)cc(O)c4-c4cc3ccc4O)[C@H](O)c3ccc(c(Cl)c3)Oc3cc2cc(c3O[C@@H]2O[C@H](CO)[C@@H](O)[C@H](O)[C@H]2O[C@H]2C[C@](C)(N)[C@H](O)[C@H](C)O2)Oc2ccc(cc2Cl)[C@H]1O [vancomycin]
bioburden levels compared to the positive control ([5]; 21 days): not statistically significantly different
reduction in bacterial bioburden from the initial inocula ([5]; 21 days after inoculation, treatment for 10 days, n=5 sheep/group): 2.5 log10 units
eradication of biofilms [2]: failed to eradicate

gentamicin
resistance of the isolate ([3]; isolate used in FIG. 1): complete resistance
Aerobic MIC ([6]; aerobic): 2 µg/mL
Anaerobic MIC ([6]; anaerobic): 4 µg/mL
synergy of the companion antibiotic with metronidazole against biofilms [2]: synergistic; also recorded: considerably strengthened; also recorded: strong synergy
eradication of biofilms [2]: failed to eradicate
Aerobic MIC ([7]; aerobic): 2 µg/mL
Anaerobic MIC ([7]; anaerobic): 16 µg/mL
Aerobic MIC [8]: 2 µg/mL
Aerobic MIC ([9]; aerobic): 2 µg/mL
Anaerobic MIC ([9]; anaerobic): 2 µg/mL
Aerobic MIC ([10]; aerobic, for 1:1 combinations MIC is the sum of both compounds): 1 µg/mL
Anaerobic MIC ([10]; anaerobic, for 1:1 combinations MIC is the sum of both compounds): 8 µg/mL
MIC against S. aureus ([10]; isolate used in biofilm tests): 1 µg/mL
Aerobic MIC ([11]; aerobic): 0.5 µg/mL
Anaerobic MIC ([11]; anaerobic): 4 µg/mL
